Values quoted from earlier work, collected in patent US11718625B2, “Near-infrared fluorescent molecule active targeting folate receptor and preparation method thereof” (NANJING NUOYUAN MEDICAL DEVICES CO., LTD, priority 2020, dated 2023).

Columns and labels:
[1] = at maximum injection dosage less than 2 mg/kg; literature report and own detection data
tumor = details: clinical practice

quantum yield (in an aqueous solution): less than 1% | wavelength of emitted fluorescence (under irradiation with the wavelength of 780 nm): 830 nm | concentration of the ICG in the human body tumors [1]: 10 to 1000 nM
SMILES: CC1(C)C(/C=C/C=C/C=C/C=C2\N(CCCCS(=O)(=O)O)c3ccc4ccccc4c3C2(C)C)=[N+](CCCCS(=O)(=O)[O-])c2ccc3ccccc3c21 [ICG, Indocyanine green]
waiting time to generate sufficient fluorescence contrast (tumor: normal tissue) (tumor): at least 12 hours
